From PubChem BioAssay (NCI)
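1) Cells in 96-well plates. 2) Compound, 48 h, 5 concentrations. 3) Linear interpolation between surrounding doses. 4) Unreached endpoint = highest concentration. Abbreviation: GI50, concentration required for 50% inhibition of growth. Definition used: TGI = concentration required for complete inhibition of growth.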

Key:
Assay in all cases: NCI-60 cell line screen, 48 h
TK-10 renal = system: TK-10 renal
IGROV1 ovarian = system: IGROV1 ovarian
SNB-19 CNS = system: SNB-19 CNS
SNB-75 CNS = system: SNB-75 CNS
OVCAR-5 ovarian = system: OVCAR-5 ovarian
MOLT-4 leukemia = system: MOLT-4 leukemia
NCI-H522 lung = system: NCI-H522 lung
A549 NSCLC = system: A549 NSCLC
NCI-H460 lung = system: NCI-H460 lung
HS 578T breast = system: HS 578T breast

SMILES | TGI (TK-10 renal) [µM] | TGI (IGROV1 ovarian) [µM] | TGI (SNB-19 CNS) [µM] | TGI (SNB-75 CNS) [µM] | TGI (OVCAR-5 ovarian) [µM] | TGI (MOLT-4 leukemia) [µM] | TGI (NCI-H522 lung) [µM] | TGI (A549 NSCLC) [µM] | TGI (NCI-H460 lung) [µM] | GI50 (IGROV1 ovarian) [µM] | GI50 (SNB-19 CNS) [µM] | GI50 (SNB-75 CNS) [µM] | GI50 (HS 578T breast) [µM] | TGI (HS 578T breast) [µM] | GI50 (OVCAR-5 ovarian) [µM] | GI50 (MOLT-4 leukemia) [µM] | GI50 (NCI-H522 lung) [µM] | GI50 (A549 NSCLC) [µM] | GI50 (NCI-H460 lung) [µM] | GI50 (TK-10 renal) [µM]
O=C(O)CNS(=O)(=O)c1ccc(NC(=O)c2cccc([N+](=O)[O-])c2)cc1 | > 100 | > 100 | > 100 | > 100 | > 100 | > 100 | > 100 | > 100 | > 100 |  |  |  |  |  |  |  |  |  |  | 
Cc1ccc(C)c2sc3cc(=O)ccc-3nc12 | 66.8 | > 100 | > 100 | > 100 | 74.1 | 69.6 | 67.6 | > 100 | > 100 |  |  |  |  |  |  |  |  |  |  | 
CC(=O)OCC1OC(O[C@@H]2C[C@H]3C(C)(C)[C@H](OC(C)=O)CC[C@]3(C)[C@H]3CC[C@@H]4[C@]5(CC[C@@]4(C)[C@@]32C)O[C@@H]([C@H](O)C(C)(C)O)C[C@@H]5C)C(O)C(O)C1O (some centres undefined) |  | 21.6 | 30.5 | 18.4 | 17.5 | 12.2 | 21.2 | 18.3 | 20.8 | 9.57 | 12.5 | 5.13 | 9.3 | 25.4 | 5.07 | 3.13 | 7.1 | 5.1 | 6.54 | 
COS(=O)CCOC(=O)c1ccccc1SSc1ccccc1C(=O)OCCS(=O)OC (centres undefined) | > 100 | > 100 | > 100 | 70.2 | > 100 | 22.8 | 18.6 | > 100 | > 100 |  |  |  |  |  |  |  |  |  |  | 
CC(C)c1cc2c(O)c(c1)Cc1cc(C(C)C)cc(c1O)Cc1cc(C(C)C)cc(c1O)Cc1cc(C(C)C)cc(c1O)Cc1cc(C(C)C)cc(c1O)Cc1cc(C(C)C)cc(c1O)C2 | > 100 | > 100 | > 100 | > 100 | > 100 | > 100 | > 100 | > 100 | > 100 |  |  |  |  |  |  |  |  |  |  | 
O=C1C=Cc2noc3cccc1c23 | 32.3 | 29.4 | 31.3 | 25.8 | 28.4 | > 100 | 3.04 | 38.7 |  |  |  |  |  |  |  |  |  |  |  | 
Cc1nc(Nc2ccc([N+](=O)[O-])cc2)sc1C(=O)/C=C/c1ccc(N(C)C)cc1 | > 100 | > 100 | > 100 | > 100 | > 100 | > 100 | > 100 | > 100 | > 100 |  |  |  |  |  |  |  |  |  |  | 
CC1=CC(=O)c2[nH]c3ccccc3c2C1=O | 9.24 | 17.1 | > 25 | 8.28 | 12.2 | 15.9 | 7.24 | > 25 | > 25 | 6.63 |  | 4.36 |  |  |  | 5.36 | 3.82 |  | 8.11 | 5.04
Clc1cccc(C2SCc3nc4ccccc4n32)c1Cl (centres undefined) | 29.2 | 33.6 | 33.1 | 18.6 | 27.1 | 41.9 | 32.1 | 41.9 | 34.6 |  |  |  |  |  |  |  |  |  |  | 
C/C(=N\N=C(N)N)c1sc(-c2nc(C)c(/C(C)=N/N=C(N)N)s2)nc1C | > 100 | > 100 | > 100 | > 100 | > 100 | > 100 | > 77 | > 100 | > 100 |  |  |  |  |  |  |  |  |  |  | 
O=C1CCCC2COc3ccc(O)c1c32 (centres undefined) | > 100 | > 100 | > 100 | > 100 | > 100 | > 100 | > 100 | > 100 | > 100 |  |  |  |  |  |  |  |  |  |  | 
C/C(=N\n1c(N)c(C#N)c(-c2ccc(Cl)cc2)c(C#N)c1=O)c1cccnc1 | > 100 | > 100 | > 100 | 99.6 | > 100 | > 100 |  | > 100 | > 100 | > 100 | > 100 | 14.6 | > 100 | > 100 | > 100 | > 100 |  | > 100 | > 100 | > 100
O=[N+]([O-])C(=C(c1ccccc1)c1ccccc1)[N+](=O)[O-] | 33.2 | 23.2 | 31.3 | 28.5 | 34.5 | 22.7 | 31.3 | 51.3 | 21 |  |  |  |  |  |  |  |  |  |  | 
CC1=C[C@H]2C[C@@]3(C)O[C@@H]([C@]4(C)CC[C@H]([C@@H](C)C(=O)O)OO4)CC3C(C)(C)[C@H]2CC1 (some centres undefined) | 4.28 |  | 3.28 | 2.35 | 4.67 |  | 0.832 | 3.62 | 2.74 |  |  |  |  |  |  |  |  |  |  | 
O=C1CCCc2c(O)ccc(O)c21 | > 100 | > 100 | > 100 | > 100 | > 100 | > 100 | 25.7 | > 100 | > 100 |  |  |  |  |  |  |  |  |  |  | 
O=C(O)c1oc2ccc([N+](=O)[O-])c3c2c1CCC3 | > 100 |  | > 100 | > 100 | > 100 |  | > 100 | > 100 | > 100 |  |  |  |  |  |  |  |  |  |  | 
NC(=O)Cn1c(=O)[nH]c(=O)c2[nH]cnc21 | > 100 | > 100 | > 100 | > 100 | > 100 | > 100 | > 100 | > 100 | > 100 |  |  |  |  |  |  |  |  |  |  | 
COc1ccc(C2CC(C)=Nc3c([nH]c(=S)[nH]c3=O)N2)cc1 (centres undefined) | 58.1 | 34.5 | 37.5 | 70.1 | 56.7 | 67.4 | 30.1 | 40.4 | 33.3 |  |  |  |  |  |  |  |  |  |  | 
Clc1ccc(CCN2CCOCC2)c(Cl)c1 |  | > 100 | > 100 | 83.3 | > 100 | > 100 | > 100 | > 100 | > 100 |  |  |  |  |  |  |  |  |  |  | 
CC(C)S(=O)(=O)n1c(N)nc2ccc(/C(=N/O)c3ccccc3)cc21 | > 100 | 48 | > 100 | 47.7 | 58.7 | 52.2 | 35.2 | 49.3 | > 100 |  |  |  |  |  |  |  |  |  |  | 
S=C1OC2C3C4CC5C3C(O1)C1C5C4C21 (centres undefined) | > 100 | > 100 | > 100 | > 100 | > 100 | > 100 | > 100 | > 100 | > 100 |  |  |  |  |  |  |  |  |  |  | 
OCC(O)C(OC1OC(CO)C(O)C(O)C1O)c1nn(-c2ccc(F)cc2)c2nc3cc(Cl)c(Cl)cc3cc12 (centres undefined) | > 100 |  | > 100 | > 100 | > 100 | > 100 | > 100 |  | > 100 |  |  |  |  |  |  |  |  |  |  | 
